Patent US20110045101A1, “FUNGICIDAL SUBSTITUTED AZOLES” (E.I. Du Pont De Nemours and Company, priority 2009, published 2011)
Marks after values point to notes of the source that are not given here.

Assays:
Format in all cases: in vivo
Conditions in all cases: 100 = 100% disease control
Botrytis cinerea = experiment: Test C: tomato Botrytis on tomato seedlings, sprayed the day before inoculation, visual disease rating
How it was run: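 Disease scored by eye on tomato seedlings inoculated with Botrytis cinerea a day after treatment. Treatment was a run-off spray at 200 ppm (equivalent to 500 g/ha), or 40 ppm where marked, in acetone/water carrying 250 ppm Trem 014.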

Alternaria solani = experiment: Test D: tomato early blight, sprayed the day before inoculation, visual disease rating
How it was run: (§1)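 Ratings reflect a 200 ppm spray (≈500 g/ha) unless marked as 40 ppm. Plants were sprayed to run-off. The spray suspension was acetone/purified water 50/50 containing 250 ppm Trem 014, after first dissolving compound in acetone at 3% of final volume.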

Septoria nodorum = experiment: Test F: wheat glume blotch on wheat seedlings, sprayed the day before inoculation, visual disease rating
How it was run: as §1

Septoria tritici = experiment: Test G: wheat leaf blotch on wheat seedlings, sprayed the day before inoculation, visual disease rating
How it was run: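 Compounds dissolved in acetone (3% of final volume), then suspended in 50/50 acetone/water with 250 ppm Trem® 014 and sprayed to run-off on seedlings at 200 ppm (≈500 g/ha) or 40 ppm where marked. Inoculation with spores followed next day; visual rating after 48 h saturated at 24° C plus 19 days at 20° C.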

[1] = test system: Puccinia recondita f. sp. tritici; experiment: Test H: wheat leaf rust, test suspension sprayed after inoculation of wheat seedlings, visual disease rating
How it was run: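 Wheat seedlings inoculated with P. recondita spores, held 24 h saturated at 20 °C, then 2 days in growth chamber at 20 °C; compound suspension (acetone/water with Trem 014) sprayed to run-off afterwards. Rated visually; 200 ppm (≈500 g/ha) unless marked *, which denotes 40 ppm.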

[2] = test system: Puccinia recondita f. sp. tritici; experiment: Test I: wheat leaf rust on wheat seedlings, sprayed the day before inoculation, visual disease rating
How it was run: as §1

[3] = test system: Erysiphe graminis f. sp. tritici; experiment: Test J: wheat powdery mildew on wheat seedlings, sprayed the day before inoculation, visual disease rating
How it was run: as §1

[4] = 200 ppm, 0 = no control relative to controls
[5] = 40 ppm (marked *), 0 = no control

| SMILES | Test C disease control rating (Botrytis cinerea; [4]) [%] | Test D disease control rating (Alternaria solani; [4]) [%] | Test F disease control rating (Septoria nodorum; [4]) [%] | Test G disease control rating (Septoria tritici; [4]) [%] | Test H disease control rating [1, 4] [%] | Test I disease control rating [2, 4] [%] | Test J disease control rating [3, 4] [%] | Test C disease control rating (Botrytis cinerea; [5]) | Test D disease control rating (Alternaria solani; [5]) | Test F disease control rating (Septoria nodorum; [5]) | Test G disease control rating (Septoria tritici; [5]) | Test H disease control rating [1, 5] | Test I disease control rating [2, 5] | Test J disease control rating [3, 5] |
| --- | --- | --- | --- | --- | --- | --- | --- | --- | --- | --- | --- | --- | --- | --- |
| COc1ccc(F)c(-c2c(Cl)nc(C)n2-c2cccc(F)c2)c1F [compound 315] | 99 | 100 | 100 | 95 | 86 | 100 | 100 |  |  |  |  |  |  |  |
| COc1ccc(F)c(-c2c(Cl)nc(Br)n2-c2cccc(C)c2)c1F [compound 316] | 99 | 99 | 95 | 93 | 6 | 99 | 100 |  |  |  |  |  |  |  |
| COc1ccc(F)c(-c2c(Cl)nc(Br)n2-c2ccc(Cl)c(F)c2)c1F [compound 317] | 100 | 100 | 100 | 95 | 17 | 99 | 100 |  |  |  |  |  |  |  |
| Cc1ncn(-c2ccc(Cl)c(F)c2)c1-c1ccccc1F [compound 318] | 100 | 16 | 0 | 91 | 0 | 9 | 87 |  |  |  |  |  |  |  |
| Cc1ncn(-c2ccc(Cl)c(F)c2)c1-c1ccnc(F)c1 [compound 319] | 99 | 24 | 0 | 98 | 6 | 28 | 81 |  |  |  |  |  |  |  |
| Cc1ncn(-c2ccc(Cl)cn2)c1-c1c(F)cccc1F [compound 320] | 99 | 67 | 0 | 100 | 0 | 28 | 99 |  |  |  |  |  |  |  |
| Cc1nc(Cl)n(-c2ccc(Cl)cn2)c1-c1c(F)cccc1F [compound 321] | 100 | 100 | 100 | 100 | 83 | 100 | 100 |  |  |  |  |  |  |  |
| Fc1cc(-c2c(CCl)nc(Cl)n2-c2ccc(Cl)c(F)c2)ccn1 [compound 322] |  |  |  |  |  |  |  | 62* % | 0* % | 0* % | 0* % | 63* % | 28* % | 0* % |
| Cc1nc(Cl)n(-c2ccc(Cl)c(F)c2)c1-c1ccnc(F)c1 [compound 323] | 100 | 99 | 0 | 100 | 70 | 100 | 99 |  |  |  |  |  |  |  |
| Fc1ccc(-n2c(Cl)nc(Br)c2-c2ccc(Cl)cc2)c(Cl)c1 [compound 324] | 99 | 99 | 82 | 93 | 9 | 97 | 99 |  |  |  |  |  |  |  |
| Cc1nc(Br)n(-c2ccc(F)cc2Cl)c1-c1ccc(Cl)c(F)c1 [compound 325] | 94 | 91 | 51 | 96 | 0 | 97 | 99 |  |  |  |  |  |  |  |
| Fc1ccc(-n2c(Cl)nc(Br)c2-c2ccc(Cl)c(F)c2)c(Cl)c1 [compound 326] | 100 | 100 | 51 | 96 | 67 | 98 | 100 |  |  |  |  |  |  |  |
| Fc1cccc(F)c1-c1c(Cl)nc(Br)n1-c1ccc2ncccc2c1 [compound 327] |  |  |  |  |  |  |  | 99* % | 98* % | 0* % | 94* % | 0* % | 86* % | 0* % |
| Fc1ccc(-n2c(Br)nc(Cl)c2-c2ccc(Cl)c(F)c2)c(Cl)c1 [compound 328] | 100 | 98 | 0 | 95 | 9 | 94 | 98 |  |  |  |  |  |  |  |
| Fc1ccc(-n2c(Br)nc(Cl)c2-c2ccc(Cl)cc2)c(Cl)c1 [compound 329] | 99 | 99 | 0 | 94 | 0 | 90 | 99 |  |  |  |  |  |  |  |
| Fc1ccc(F)c(-c2c(Br)ncn2-c2ccc(Cl)cc2)c1F [compound 330] | 100 | 100 | 0 | 96 | 9 | 98 | 99 |  |  |  |  |  |  |  |
| Fc1ccc(-n2cnc(Br)c2-c2c(F)ccc(F)c2F)cc1 [compound 332] | 100 | 99 | 60 | 95 | 9 | 96 | 99 |  |  |  |  |  |  |  |
| COc1ccc(F)c(-c2c(Cl)nc(C)n2-c2ccc(C)cc2)c1F [compound 333] |  |  |  |  |  |  |  | 100* % | 100* % | 99* % | 91* % | 0* % | 100* % | 100* % |
| COc1ccc(F)c(-c2c(Cl)nc(C)n2-c2ccc(F)cc2)c1F [compound 334] |  |  |  |  |  |  |  | 100* % | 100* % | 90* % | 93* % | 0* % | 100* % | 100* % |
| COc1ccc(F)c(-c2c(Cl)nc(C)n2-c2cccc(C)c2)c1F [compound 335] |  |  |  |  |  |  |  | 100* % | 100* % | 82* % | 91* % | 0* % | 99* % | 99* % |
| Cc1nc(Br)c(-c2c(F)cccc2F)n1-c1ccc2ccccc2c1 [compound 336] |  |  |  |  |  |  |  | 99* % | 88* % | 99* % | 96* % | 0* % | 74* % | 87* % |
| Cc1nc(Br)c(-c2c(F)cccc2F)n1-c1ccc(Cl)c2ccccc12 [compound 337] |  |  |  |  |  |  |  | 19* % | 0* % | 0* % | 23* % | 0* % | 0* % | 0* % |
| Cc1nc(Br)c(-c2ccc(Cl)cc2)n1-c1ccc(F)cc1Cl [compound 338] | 100 | 100 | 80 | 93 | 0 | 99 | 99 |  |  |  |  |  |  |  |
| Cc1nc(Br)n(-c2ccc(F)cc2Cl)c1-c1ccc(Cl)cc1 [compound 339] | 100 | 99 | 78 | 95 | 0 | 96 | 96 |  |  |  |  |  |  |  |
| Cc1nc(Br)c(-c2ccc(Cl)c(F)c2)n1-c1ccc(F)cc1Cl [compound 340] | 99 | 98 | 0 | 92 | 0 | 94 | 95 |  |  |  |  |  |  |  |
